# Test results from patent US20250282895A1, “PHARMACEUTICAL COMPOSITIONS OF CHEMOTHERAPEUTIC AGENTS BASED ON BETA-S[…]-AMINO ACID DERIVATIVES” (priority 2021, published 2025).
# Structures can show the parent of a compound that is named as a salt.
# Assay: Comparative stability, Formulation 1 (Na3-citrate buffered)
# Format: physicochemical
# Conditions: Formulation 1, 25° C.
# Procedure: The stability of Compound (1c) either as the HCl salt or as the free base was compared to the stability of melphalan HCl and/or bendamustine HCl in various pharmaceutical formulations and at different concentrations and at temperatures of 0° C. or 25° C.
# The stability of the compounds in the pharmaceutical formulations was determined at concentrations within the range from 0.4 mg/mL to 0.5 mg/mL, from 0.9 mg/mL to 1.1 mg/mL, and from 1.8 mg/mL to 2.1 mg/mL.
# The amount of the active pharmaceutical ingredient (API) (Compound (1c), melphalan or bendamustine) in the pharmaceutical formulations at different times during storage was determined using HPLC/UV as described in detail for Example 4 and Example 5.
# The first formulation included a mixture of 57.5 vol-% 1,2-propylene glycol (1,2-PG), 30 vol-% Kolliphor® HS 15 (Solutol®, Macrogol®, BASF AG/SigmaAldrich), and 12.5 vol-% ethanol (EtOH), and the resulting solution was further diluted and adjusted to pH 6.8 using a pH 8.1-8.3 Na3-citrate buffer (51 mM Na3-citrate·2H2O and 73.6 mM NaCl).
# The pH 8.1-8.3 Na3-citrate buffer was prepared form 1.50 g (5.10 mmol) of Na3-citrate. 2H2O (Na3C6H5O7·2H2O; MW 294.10 g/mol; J. T. Baker, 3650-01) and 0.43 g (7.36 mmol) of sodium chloride (NaCl; MW 58.44 g/mol; SigmaAldrich, S9888) dissolved to 100 mL with double-distilled water (dd-H2O) (Arrowhead). The solution was filtered through a 0.45 μm nylon syringe filter, and the pH of the solution was adjusted to 8.1-8.3 with a saturated aqueous solution of sodium hydrogencarbonate (NaHCO3).
# The excipient mixture was prepared from 4.77 g (62.7 mmol; 4.6 mL) 1,2-propylene glycol (1,2-PG; MW 76.09 g/mol; d 1.036; Acros Organics, 220870010), 2.52 g (2.40 mL, d 1.05) of melted (15 s microwaving) Kolliphor® HS 15 (BASF AG/SigmaAldrich, 42966), and 0.798 g (17.32 mmol, 1.0 mL) of ethanol (EtOH, MW 46.06 g/mol, d 0.798, KOPTEC, V1016). The clear viscous mixture was warmed to about 40° C. before use (water bath).
# A series of 12 mL glass vials each containing 6.1 mg ([…]) of Compound (1c) mono-hydrochloride salt (corresponding to 5.5 mg of Compound (1c) as the free base) were prepared as described in Example 5 through lyophilization of aliquots of an acidified stock solution.
# (§1) 660 μL (6 vol-%) of pre-warmed excipient mixture were added to the Compound (1c) mono-hydrochloride salt in the vial. Compound (1c) mono-hydrochloride salt was dissolved with gentle heating and vortexing. The viscous solution was further diluted with 10,340 μL (94 vol-%) of pH 8.1-8.3 Na3-citrate buffer to provide 11.0 mL of a clear, colorless formulation with a concentration of 0.5 mg/ml of Compound (1c) as a monohydrochloride salt and a pH of 6-7.
# as §1, with “330” for “660”, “5,170” for “10,340”, “5.5” for “11.0”, “1.0 mg/mL” for “0.5 mg/ml”
# as §1, with “165” for “660”, “2,585” for “10,340”, “2.75” for “11.0”, “2.0” for “0.5”
# The solutions were placed in glass vials and stored at room temperature (about 25° C.), and the amount of Compound (1c) derived from the mono hydrochloride salt (mono HCl salt) of compound of Formula (1c) was measured at intervals using analytical high pressure liquid chromatography coupled to a UV detector (HPLC/UV) as described in Example 4.
compound,measurement,setting,value
"Cc1ccc(N(CCCl)CCCl)cc1C[C@H](N)CC(=O)O [Compound (1c)•HCl, (S)-3-amino-4-(5-(bis(2-chloroethyl)amino)-2-methylphenyl) butanoic acid mono hydrochloride salt]",% API,"pH 6.8, 0.5 hours, 0.4-0.5 mg/mL",79%
same,% API,"pH 6.8, 0.5 hours, 0.9-1.1 mg/mL",84%
same,% API,"pH 6.8, 0.5 hours, 1.8-2.1 mg/mL",88%
same,% API,"pH 6.8, 2.0 hours, 0.4-0.5 mg/mL",52%
same,% API,"pH 6.8, 2.0 hours, 0.9-1.1 mg/mL",55%
same,% API,"pH 6.8, 2.0 hours, 1.8-2.1 mg/mL",65%
